According to the NIST ThermoML archive (doi:10.1016/j.fluid.2012.08.020):
Values joined by “and” are separate entries in the source; they are usually repeats but may differ in a detail not shown here. Equal entries are not always repeated.

Tests used:
[1] = molar enthalpy of vaporization or sublimation; conditions: Liquid, Calvet Calorimetry

CC(C)c1cccc(-c2ccccc2)c1 [3-(1-Methylethyl)-1,1'-biphenyl]
Liquid
Conditions	vapor or sublimation pressure
302.8 K, Transpiration method	0.00045 kPa
303.3 K, Transpiration method	0.00044 kPa
305.9 K, Transpiration method	0.00061 kPa
307.8 K, Transpiration method	0.0007 kPa
309.9 K, Transpiration method	0.0009 kPa
312.9 K, Transpiration method	0.00122 kPa
313.3 K, Transpiration method	0.00116 kPa
315.9 K, Transpiration method	0.00146 kPa
317.9 K, Transpiration method	0.00187 kPa
319.9 K, Transpiration method	0.00217 kPa
322.9 K, Transpiration method	0.00265 kPa and 0.00276 kPa
323.3 K, Transpiration method	0.0025 kPa
325.8 K, Transpiration method	0.00378 kPa
327.8 K, Transpiration method	0.00388 kPa
328 K, Transpiration method	0.00408 kPa
329.8 K, Transpiration method	0.00479 kPa
332.3 K, Transpiration method	0.00644 kPa
332.8 K, Transpiration method	0.0062 kPa
333.3 K, Transpiration method	0.0064 kPa and 0.00674 kPa and 0.0065 kPa
333.4 K, Transpiration method	0.00634 kPa and 0.00708 kPa
335.3 K, Transpiration method	0.0078 kPa
335.8 K, Transpiration method	0.00832 kPa
336.3 K, Transpiration method	0.00811 kPa and 0.0082 kPa
337.3 K, Transpiration method	0.00945 kPa
337.7 K, Transpiration method	0.00887 kPa
338 K, Transpiration method	0.00931 kPa
338.3 K, Transpiration method	0.00975 kPa
340.3 K, Transpiration method	0.01113 kPa
342.3 K, Transpiration method	0.01244 kPa
343.1 K, Transpiration method	0.01478 kPa and 0.01437 kPa
343.3 K, Transpiration method	0.01376 kPa and 0.01441 kPa
345.3 K, Transpiration method	0.01629 kPa and 0.01561 kPa
347.3 K, Transpiration method	0.01952 kPa and 0.01755 kPa
348.3 K, Transpiration method	0.01973 kPa and 0.02029 kPa and 0.02064 kPa
349.3 K, Transpiration method	0.02026 kPa
351.3 K, Transpiration method	0.02423 kPa
353.2 K, Transpiration method	0.02884 kPa
353.3 K, Transpiration method	0.02848 kPa
358.2 K, Transpiration method	0.04134 kPa
434.53 K, Ebulliometric method (Recirculating still)	2.17 kPa
452.99 K, Ebulliometric method (Recirculating still)	4.346 kPa
467.03 K, Ebulliometric method (Recirculating still)	7.152 kPa
479.19 K, Ebulliometric method (Recirculating still)	10.66 kPa
486.79 K, Ebulliometric method (Recirculating still)	13.5 kPa
494.39 K, Ebulliometric method (Recirculating still)	16.96 kPa
501.93 K, Ebulliometric method (Recirculating still)	21.07 kPa
511.48 K, Ebulliometric method (Recirculating still)	27.41 kPa
519.96 K, Ebulliometric method (Recirculating still)	34.27 kPa
529.73 K, Ebulliometric method (Recirculating still)	43.86 kPa
539.88 K, Ebulliometric method (Recirculating still)	56.03 kPa
550.47 K, Ebulliometric method (Recirculating still)	71.52 kPa
562.29 K, Ebulliometric method (Recirculating still)	92.61 kPa
573.95 K, Ebulliometric method (Recirculating still)	118.1 kPa

Conditions	Normal boiling temperature, Ebulliometric method (Recirculating still) [°C]	molar enthalpy, 323.15 K [kcal/mol]	molar enthalpy, 333.15 K [kcal/mol]	molar enthalpy, 343.15 K [kcal/mol]	molar enthalpy, 353.15 K [kcal/mol]	molar enthalpy, 363.15 K [kcal/mol]	molar enthalpy, 373.15 K [kcal/mol]
Liquid	293.39	–	–	–	–	–	–
[1]	–	17.8	17.5	17.3	17.1	16.8	16.6

Cc1ccc(-c2ccc(C)cc2)cc1 [4,4'-dimethylbiphenyl]
Crystal, Transpiration method
Conditions	vapor or sublimation pressure [kPa]
334.2 K	0.00389
339.3 K	0.00638
343.2 K	0.00955
349.2 K	0.01668
353.7 K	0.02516
354.6 K	0.02591
358.8 K	0.03834
363.7 K	0.05681
368.7 K	0.08722
374.5 K	0.1474
379.5 K	0.2146

Cc1ccc(-c2ccccc2)cc1 [4-methylbiphenyl]
Conditions	Normal boiling temperature [°C]
Liquid, Ebulliometric method (Recirculating still)	274.4

Cc1cccc(-c2ccccc2)c1 [3-methylbiphenyl]
Liquid, Transpiration method
Conditions	vapor or sublimation pressure [kPa]
318.8 K	0.00702
320.4 K	0.00797
323.3 K	0.01012
325.5 K	0.01178
328.1 K	0.01408
330.3 K	0.01692
333.1 K	0.02024
336.1 K	0.02586
338.5 K	0.03025
340.4 K	0.03425
343.2 K	0.04154
346.4 K	0.05071
348.5 K	0.05569
350.8 K	0.06543
353.7 K	0.07738
356.2 K	0.09688
358.3 K	0.1068
360.8 K	0.1231
363.6 K	0.1459
365.8 K	0.1642

Cc1ccccc1-c1ccccc1 [2-methylbiphenyl]
Liquid, Transpiration method
Conditions	vapor or sublimation pressure [kPa]
301 K	0.00376
303.5 K	0.00477
305.9 K	0.0056
308.4 K	0.00692
310.9 K	0.00851
313.4 K	0.01043
315.9 K	0.0128
318.4 K	0.01527
320.8 K	0.0183
323.3 K	0.02232
325.8 K	0.02641
328.3 K	0.0314
330.7 K	0.03763
333.2 K	0.04446
335.7 K	0.05183
338.1 K	0.06106
340.6 K	0.07203
343.1 K	0.08401
345.6 K	0.09811
348.1 K	0.1141

CC(C)(C)c1ccc(-c2ccccc2)cc1 [4-(1,1-dimethylethyl)-1,1'-biphenyl]
Liquid, Ebulliometric method (Recirculating still)
Conditions	vapor or sublimation pressure [kPa]
448.41 K	2.117
467.65 K	4.346
482.23 K	7.152
494.83 K	10.66
502.69 K	13.5
510.59 K	16.96
518.4 K	21.07
528.31 K	27.41
537.1 K	34.27
547.22 K	43.86
557.74 K	56.03
568.72 K	71.52
580.98 K	92.61
593.09 K	118.1

Conditions	Normal boiling temperature [°C]
Liquid, Ebulliometric method (Recirculating still)	312.24

CC(C)(C)c1ccc(-c2ccc(C(C)(C)C)cc2)cc1 [4,4'-bis(1,1-dimethylethyl)-1,1'-biphenyl]
Crystal, Transpiration method
Conditions	vapor or sublimation pressure [kPa]
335.5 K	7.9e-05
338.5 K	0.00011
341.5 K	0.000146
343.5 K	0.000176
348.2 K	0.000291
351.5 K	0.000425
353.9 K	0.000537
358.5 K	0.000887
363.7 K	0.001398
365.5 K	0.001697
368.6 K	0.002328
370.5 K	0.002679
373.5 K	0.003653
373.7 K	0.003396
375.7 K	0.004092
378.2 K	0.005541
380.4 K	0.006527
382.5 K	0.007664
384.7 K	0.009379

CC(C)(C)c1cccc(-c2ccccc2)c1 [3-(1,1-dimethylethyl)-1,1'-biphenyl]
Liquid
Conditions	vapor or sublimation pressure [kPa]
323 K, Transpiration method	0.00191
325.9 K, Transpiration method	0.00244
328.5 K, Transpiration method	0.00298
331 K, Transpiration method	0.00368
333.4 K, Transpiration method	0.00447
335.3 K, Transpiration method	0.00514
338.2 K, Transpiration method	0.00653
340.8 K, Transpiration method	0.00801
343.3 K, Transpiration method	0.00917
345.5 K, Transpiration method	0.0113
348.1 K, Transpiration method	0.01363
350.7 K, Transpiration method	0.01622
353.4 K, Transpiration method	0.01957
356 K, Transpiration method	0.02333
358.5 K, Transpiration method	0.0282
361.3 K, Transpiration method	0.03303
440.79 K, Ebulliometric method (Recirculating still)	2.117
459.53 K, Ebulliometric method (Recirculating still)	4.346
473.75 K, Ebulliometric method (Recirculating still)	7.152
486.07 K, Ebulliometric method (Recirculating still)	10.66
493.76 K, Ebulliometric method (Recirculating still)	13.5
501.46 K, Ebulliometric method (Recirculating still)	16.96
509.1 K, Ebulliometric method (Recirculating still)	21.07
518.78 K, Ebulliometric method (Recirculating still)	27.41
527.38 K, Ebulliometric method (Recirculating still)	34.27
537.26 K, Ebulliometric method (Recirculating still)	43.86
547.55 K, Ebulliometric method (Recirculating still)	56.03
558.29 K, Ebulliometric method (Recirculating still)	71.52
570.25 K, Ebulliometric method (Recirculating still)	92.61
582 K, Ebulliometric method (Recirculating still)	118.1

Conditions	Normal boiling temperature [°C]
Liquid, Ebulliometric method (Recirculating still)	301.34
